Here are results for 9 compounds from US20030176366A1, “Topical application of ascorbic acid compounds for augmenting the synthesis of epidermal ceramides” (SOCIETE L'OREAL S.A., priority 2000, published 2003).

The test system of one assay is reconstructed epidermes. Nature of the assay: Lipid profile of treated reconstructed epidermes (densitometric analysis). The following applies: applied for 6 days at 1.10×10^−4 M; relative to the control and relative to ascorbic acid; not quantified. Format: cell-based. On the procedure:
The test described in Example 1 was repeated using various ascorbic acid derivatives, applied for 6 days at 1.10×10^-4 M on reconstructed […] subjected to 7 days of culture. The quantity of epidermal ceramides produced was, however, not quantified. Instead, a densitometric analysis was carried out using a CAMAG TLC® model Scanner 3 densitometric reader. The lipid profile of the treated […] determined, in which: The lipid content was determined of the sample of reconstructed epidermis either untreated (control), or treated with ascorbic acid (vitamin C) or with one of the ascorbic acid derivatives A to G indicated above.

Assay [1] relates to skin equivalent marketed by EPISKIN. Nature of the assay: Effect on the synthesis of epidermal lipids in EPISKIN skin equivalent (HPTLC, densitometry). The assay is classed as cell-based. The following applies: for percentage increase in Ceramides 4-7 relative to the untreated control / percentage increase in cer. 6-7 relative to the untreated control: treated for five days. The protocol:
Ascorbyl glucoside and ascorbic acid itself were tested on a skin equivalent marketed by EPISKIN (Lyon, France), after culturing the latter for 7 days. The culture and assay media were those contained in the kit marketed by the supplier. Each compound was tested at 5 μg/ml and 0.05 μg/ml (as vitamin C equivalent) in the culture medium. The reconstructed epidermes were treated for five days, the culture medium being replaced every 48 hours. The control consisted of an identical epidermis equivalent which was subjected to topical application of culture medium without the compound to be tested.
At the end of the incubation period, the epidermis equivalent was detached from its collagenic support. The preparation of the lipids of the epidermis equivalent and their analysis by HPTLC or high-performance thin-layer chromatography were carried out according to the technique and with the buffers described by M. Ponec (1991, Adv. Lipid Res., 24:83-117). At the end of the migration, densitometric analysis was carried out using a CAMAG TLC model Scanner 3 densitometric reader.
The results obtained are reported in the Table below as a percentage increase in ceramides 4, 5, 6 and 7 relative to the untreated control.

The mark [2] stands for this setting: 0.05 μg/ml as vitamin C equiv. in culture medium.
Where [3] appears, read: 5 μg/ml as vitamin C equiv. in culture medium.

On to `CC1(C)OCC(C2OC(=O)C(O[C@H]3O[C@H](CO)[C@@H](O)[C@H](O)[C@H]3O)=C2O)O1` (stereo partly drawn) [Compound A, 2-O-α-D-glucopyranosyl of (5,6-isopropylidene)ascorbic acid], for which the “polar ceramide content of reconstructed epidermes / effect on epidermal lipogenesis” value with reconstructed epidermes is given as “significantly increases the polar ceramide content”.

On to `O=C(/C=C/c1ccccc1)OC1=C(O)[C@@H]([C@@H](O)CO)OC1=O` [Compound B, ascorbyl 2-cinnamate], for which, in the assay with reconstructed epidermes, the “polar ceramide content of reconstructed epidermes / effect on epidermal lipogenesis” value is given as “significantly increases the polar ceramide content”.

Take `COc1cc(/C=C/C(=O)OC2=C(O)[C@@H]([C@@H](O)CO)OC2=O)ccc1O` [Compound C, ascorbyl 2-ferulate]: in the assay with reconstructed epidermes, the “polar ceramide content of reconstructed epidermes / effect on epidermal lipogenesis” value is “significantly increases the polar ceramide content”.

In the case of `CCCCCCCCCCCCCCCC(=O)OC1=C(O)C(C2COC(C)(C)O2)OC1=O` (stereo not shown) [Compound D, (5,6-isopropylidene)ascorbyl 2-hexadecanoate], the “polar ceramide content of reconstructed epidermes / effect on epidermal lipogenesis” value with reconstructed epidermes is on record as “significantly increases the polar ceramide content”.

Regarding `COC(=O)COC1=C(OCC(=O)OC)C(C(O)CO)OC1=O` (stereo not shown) [Compound E, ascorbyl 2,3-bis(methoxycarbonyl-methoxy) ether, reference compound], the “polar ceramide content of reconstructed epidermes / effect on epidermal lipogenesis” value in the assay on reconstructed epidermes is on record as “no significant effect on the epidermal lipogenesis”.

On to `O=C1O[C@H]([C@@H](O)CO)C(O)=C1OS(=O)(=O)[O-].O=C1O[C@H]([C@@H](O)CO)C(O)=C1OS(=O)(=O)[O-].[Ba+2]` [Compound F, barium 2-ascorbyl sulfate, reference compound], for which, in the assay with reconstructed epidermes, the “polar ceramide content of reconstructed epidermes / effect on epidermal lipogenesis” value is listed as “no significant effect on the epidermal lipogenesis”.

For `CC1(C)OCC(C2OC(=O)C(OC(=O)c3ccccc3)=C2O)O1` (stereo not shown) [Compound G, (5,6-isopropylidene)ascorbyl 2-benzoate], the “polar ceramide content of reconstructed epidermes / effect on epidermal lipogenesis” value in the assay with reconstructed epidermes is given as “significantly increases the polar ceramide content”.

Consider `O=C1O[C@H]([C@@H](O)CO)C(O)=C1O` [ascorbic acid], for which, in assay [1] (setting [2]), the “percentage increase in Ceramides 4-7 relative to the untreated control” value is recorded as “+7%” and the “percentage increase in cer. 6-7 relative to the untreated control” value is on record as “+15%”. Also, in assay [1] (setting [3]), the “percentage increase in Ceramides 4-7 relative to the untreated control” value was “+21%” and the “percentage increase in cer. 6-7 relative to the untreated control” value was −17%.

For `O=C1O[C@H]([C@@H](O)CO)C(O)=C1O[C@H]1O[C@H](CO)[C@@H](O)[C@H](O)[C@H]1O` [ascorbyl glucoside, 2-O-α-D-glucopyranosyl of L-ascorbic acid], in assay [1] (setting [2]), the “percentage increase in Ceramides 4-7 relative to the untreated control” value is listed as “+11%” and the “percentage increase in cer. 6-7 relative to the untreated control” value is listed as “+65%”. Besides, in assay [1] (setting [3]), the “percentage increase in Ceramides 4-7 relative to the untreated control” value was “+40%” and the “percentage increase in cer. 6-7 relative to the untreated control” value is reported as “+59%”. The “increase in the synthesis of the epidermal lipids (in particular of the most polar ceramides) compared with ascorbic acid” value in assay [1] (tested at the same concentration as ascorbic acid) is “much higher for ascorbyl glucoside than for ascorbic acid”.
